Assay results taken from publication PMC8611843 (BMC Cancer, 2021).
Like-named read-outs stand apart in the source and are kept apart here.

Experiments:
[1] = Phase 1 3 + 3 dose-escalation study: safety, DLTs and drug-related AEs (CTCAE v4.03); format: in vivo
Protocol: This study was based on a 3 + 3 dose-escalation design (Additional file 1). […] The duration of cycle 0 was 7 days and that of each cycle after cycle 1 was 28 days in principle. Treatment continued until progressive disease (PD) or discontinuation for other reasons (Additional file 1).
(§1) The primary endpoint was safety. The severity of adverse events (AEs) was evaluated using National Cancer Institute Common Terminology Criteria for Adverse Events version 4.03 [21].
However, patients with nausea, vomiting, diarrhea, and hypophosphatemia were allowed to continue treatment without interruption by receiving the appropriate care.
AEs were summarized by System Organ Class and Preferred Term according to the Medical Dictionary for Regulatory Activities, version 20.1. The Kaplan-Meier method was used to estimate the median PFS (mPFS). PFS is defined as the duration of time from day 1 to the date of death or of PD, whichever came first. Patients who received subsequent therapy before confirmation of PD or in whom neither PD nor death was confirmed were censored at the last time point of non-PD confirmation. Clinical benefit rate (CBR) was defined as the percentage of patients achieving complete response (CR) or partial response (PR), or who maintained stable disease (SD) for more than 6 months.

[2] = tested on: HLA-DR, CD69, ICOS on CD4+ and CD8+ T-cells; test: T-cell activation markers on CD4+ and CD8+ T-cells in PBMCs; format: in vivo, Japanese patients; settings: Cohorts 1–3
Protocol: Staining of CD3+ cells was performed using antibodies (all from BioLegend) against CD4 (Clone RPA-T4, Cat. 300512), CD8 (Clone SK-1, Cat. 344718), CD69 (Clone FN50, Cat. 310910), inducible T-cell costimulator (ICOS; Clone […], Cat. 313514), and human leukocyte antigen-DR (HLA-DR; Clone L243, Cat. 307630).

[3] = Plasma ENT concentration and PK parameters (LC/MS/MS); format: in vivo, Japanese patients
Protocol: The PK parameters assessed after single and/or combination therapy included time at which maximum plasma concentration (Cmax) was observed (tmax), and the area under the plasma concentration-time curve from time 0–168 h (AUC0–168).

[4] = once weekly; cited from earlier work
[5] = tested on: Ac-K levels in CD19+ cells; test: Protein lysine acetylation (Ac-K) levels in PBMCs; format: in vivo, Japanese patients; settings: 24 h after first administration
Protocol: Ac-K levels in CD19+ cells, CD56+ CD16- cells, CD14+ monocytes, CD16+ cells, CD3+ T-cells, and CD45+ cells were measured using the previously reported methods, with a modification where antiacetylated lysine monoclonal antibody (BioLegend, San Diego, CA, USA; Clone 15G10, Cat. 623406) was used.

[6] = tested on: PBMCs derived from lung cancer patients; design: method as in PMID 28408401; settings: cited from earlier work
[7] = Electrocardiogram, change in QTc interval; format: in vivo, Japanese patients; settings: patients tested
Protocol: as §1

[8] = tested on: HR+/HER2− advanced or metastatic BC; settings: BOLERO-2, cited from earlier work
[9] = tested on: HR+/HER2− advanced or metastatic BC; design: method as in PMID 23650416; settings: ENCORE 301, N = 130; cited from earlier work
[10] = Cohort 1 N = 3, ENT 3 mg mono → EXE combo
[11] = Cohort 2 N = 3, ENT 5 mg mono → EXE combo
[12] = Cohort 3 N = 3, ENT 10 mg mono → EXE combo
[13] = Cohort 4 N = 3, ENT 5 mg + EXE combo
[14] = Total N = 12, as of data cut-off date

Nc1ccccc1NC(=O)c1ccc(CNC(=O)OCc2cccnc2)cc1 [ENT, Entinostat]
Anemia, G2 (n patients, drug-related AE) [1, 10]: 1 | Back pain, G1 (n patients, drug-related AE) [1, 10]: 1 | Diarrhea, G2 (n patients, drug-related AE) [1, 10]: 1 | Hypoalbuminemia, G1 (n patients, drug-related AE) [1, 10]: 1 | Hypoalbuminemia, G2 (n patients, drug-related AE) [1, 10]: 1 | Neutrophil count decreased, G2 (n patients, drug-related AE) [1, 10]: 2 | Neutrophil count decreased, G3 (n patients, drug-related AE) [1, 10]: 1 | Platelet count decreased, G1 (n patients, drug-related AE) [1, 10]: 2 | Pneumonitis, G1 (n patients, drug-related AE) [1, 10]: 1 | Weight decreased, G2 (n patients, drug-related AE) [1, 10]: 1 | White blood cell count decreased, G1 (n patients, drug-related AE) [1, 10]: 1 | White blood cell count decreased, G2 (n patients, drug-related AE) [1, 10]: 1 | Anemia, G1 (n patients, drug-related AE) [1, 11]: 1 | Decreased appetite, G1 (n patients, drug-related AE) [1, 11]: 1 | Diarrhea, G1 (n patients, drug-related AE) [1, 11]: 1 | Fatigue, G1 (n patients, drug-related AE) [1, 11]: 1 | Gastritis, G1 (n patients, drug-related AE) [1, 11]: 1 | Headache, G1 (n patients, drug-related AE) [1, 11]: 1 | Hypoalbuminemia, G2 (n patients, drug-related AE) [1, 11]: 1 | Hypophosphatemia, G3 (n patients, drug-related AE) [1, 11]: 2 | Nausea, G1 (n patients, drug-related AE) [1, 11]: 2 | Neutrophil count decreased, G2 (n patients, drug-related AE) [1, 11]: 1 | Neutrophil count decreased, G3 (n patients, drug-related AE) [1, 11]: 1 | Platelet count decreased, G1 (n patients, drug-related AE) [1, 11]: 1 | Platelet count decreased, G3 (n patients, drug-related AE) [1, 11]: 1 | White blood cell count decreased, G2 (n patients, drug-related AE) [1, 11]: 1 | Anemia, G2 (n patients, drug-related AE) [1, 12]: 1 | Back pain, G1 (n patients, drug-related AE) [1, 12]: 1 | Decreased appetite, G1 (n patients, drug-related AE) [1, 12]: 1 | Fatigue, G1 (n patients, drug-related AE) [1, 12]: 1 | Headache, G1 (n patients, drug-related AE) [1, 12]: 1 | Hypoalbuminemia, G2 (n patients, drug-related AE) [1, 12]: 2 | Hypophosphatemia, G2 (n patients, drug-related AE) [1, 12]: 1 | Hypophosphatemia, G3 (n patients, drug-related AE) [1, 12]: 1 | Nausea, G1 (n patients, drug-related AE) [1, 12]: 2 | Neutrophil count decreased, G2 (n patients, drug-related AE) [1, 12]: 1 | Platelet count decreased, G1 (n patients, drug-related AE) [1, 12]: 1 | White blood cell count decreased, G2 (n patients, drug-related AE) [1, 12]: 1 | Anemia, G3 (n patients, drug-related AE) [1, 13]: 1 | Fatigue, G1 (n patients, drug-related AE) [1, 13]: 1 | Gastritis, G1 (n patients, drug-related AE) [1, 13]: 1 | Hypoalbuminemia, G1 (n patients, drug-related AE) [1, 13]: 1 | Hypoalbuminemia, G2 (n patients, drug-related AE) [1, 13]: 1 | Hypophosphatemia, G3 (n patients, drug-related AE) [1, 13]: 1 | Nausea, G1 (n patients, drug-related AE) [1, 13]: 2 | Neutrophil count decreased, G2 (n patients, drug-related AE) [1, 13]: 1 | Neutrophil count decreased, G3 (n patients, drug-related AE) [1, 13]: 1 | Platelet count decreased, G2 (n patients, drug-related AE) [1, 13]: 1 | Platelet count decreased, G3 (n patients, drug-related AE) [1, 13]: 1 | Pneumonitis, G1 (n patients, drug-related AE) [1, 13]: 1 | Weight decreased, G1 (n patients, drug-related AE) [1, 13]: 1 | White blood cell count decreased, G2 (n patients, drug-related AE) [1, 13]: 1 | Drug-related hypophosphatemia, grade 1 or 2 ([1]; DLT observation period): one patient in Cohorts 2, 3, and 4 | Drug-related nausea, grade 1 ([1]; DLT observation period): one patient in Cohort 3 and two patients in Cohort 4 | Drug-related platelet count decreased, grade 1 or 2 ([1]; DLT observation period): two patients in Cohort 4 | DLTs or grade 3–5 AEs ([1]; DLT observation period, ENT 3 mg or 5 mg once weekly or 10 mg single dose mono, ENT 5 mg weekly + EXE 25 mg/d): no DLTs or grade 3–5 AEs occurred | Anemia, G1 (n patients, drug-related AE) [1, 14]: 1 | Anemia, G2 (n patients, drug-related AE) [1, 14]: 2 | Anemia, G3 (n patients, drug-related AE) [1, 14]: 1 | Back pain, G1 (n patients, drug-related AE) [1, 14]: 2 | Decreased appetite, G1 (n patients, drug-related AE) [1, 14]: 2 | Diarrhea, G1 (n patients, drug-related AE) [1, 14]: 1 | Diarrhea, G2 (n patients, drug-related AE) [1, 14]: 1 | Fatigue, G1 (n patients, drug-related AE) [1, 14]: 3 | Gastritis, G1 (n patients, drug-related AE) [1, 14]: 2 | Headache, G1 (n patients, drug-related AE) [1, 14]: 2 | Hypoalbuminemia, G1 (n patients, drug-related AE) [1, 14]: 2 | Hypoalbuminemia, G2 (n patients, drug-related AE) [1, 14]: 5 | Hypophosphatemia, G2 (n patients, drug-related AE) [1, 14]: 1 | Hypophosphatemia, G3 (n patients, drug-related AE) [1, 14]: 4 | Nausea, G1 (n patients, drug-related AE) [1, 14]: 6 | Neutrophil count decreased, G2 (n patients, drug-related AE) [1, 14]: 5 | Neutrophil count decreased, G3 (n patients, drug-related AE) [1, 14]: 3 | Platelet count decreased, G1 (n patients, drug-related AE) [1, 14]: 4 | Platelet count decreased, G2 (n patients, drug-related AE) [1, 14]: 1 | Platelet count decreased, G3 (n patients, drug-related AE) [1, 14]: 2 | Pneumonitis, G1 (n patients, drug-related AE) [1, 14]: 2 | Weight decreased, G1 (n patients, drug-related AE) [1, 14]: 1 | Weight decreased, G2 (n patients, drug-related AE) [1, 14]: 1 | White blood cell count decreased, G1 (n patients, drug-related AE) [1, 14]: 1 | White blood cell count decreased, G2 (n patients, drug-related AE) [1, 14]: 4 | Study treatment interrupted because of grade 3 platelet count decreased ([1]; by data cut-off date): two patients | Study treatment interrupted owing to grade 3 neutrophil count decreased ([1]; by data cut-off date): Three patients | ENT dose reduction ([1]; during DLT observation period, all cohorts): not observed | ENT dose reduction from 5 mg to 3 mg owing to platelet count decreased and hypophosphatemia ([1]; in combination with EXE after DLT observation period): one patient in Cohort 2 and two patients in Cohort 4 | Serious AEs (SAEs) ([1]; start of study to cut-off date): one case each of abdominal pain (grade 2), pulmonary embolism (grade 3), maculopapular rash (grade 3), and femoral neck fracture (grade 3) | Expression of HLA-DR in CD4+ and CD8+ T-cells [2]: increased over time | Expression of CD69 ([2]; some patients, greater with SD ≥ 6 months): Increased expression | AUC0–168 dose dependency ([3]; ENT alone, 3, 5, 10 mg): increased linearly with dose | Steady state reached ([3]; all cohorts): cycle 1, day 15 | Tmax ([3]; human, plasma, oral administration, all cohorts): 28.8 to 85.2 min | Cmax dose dependency ([3]; intersubject variability high at 10 mg): increased in accordance with dose escalation between 3 mg and 5 mg | Maximum tolerated dose [4]: 4 mg/m^2 | Increase of Ac-K levels in CD19+ cells vs prior to administration ([5]; Cohort 1 (ENT 3 mg)): about 1.5 fold | Increase of Ac-K levels in CD19+ cells vs prior to administration ([5]; Cohort 2 (ENT 5 mg)): ~1.9 fold | Increase of Ac-K levels in CD19+ cells vs prior to administration ([5]; Cohort 3 (ENT 10 mg)): ~2.7 fold | T-cell activation markers such as CD69 [6]: increases | Effect on electrocardiograms [7]: no effect

C=C1C[C@@H]2[C@H](CC[C@]3(C)C(=O)CC[C@@H]23)[C@@]2(C)C=CC(=O)C=C12 [EXE, exemestane]
mPFS ([8]; 35 Japanese patients): 4.21 months | mPFS ([8]; second-line or later hormonal therapy): 4.1 months | Median OS [9]: 19.84 months | Median PFS [9]: 2.3 months | Influence on the PK of ENT ([3]; ENT monotherapy vs ENT + EXE 25 mg/d): no influence
